This note sets out measurements from patent publication US4347177A, “Compounds and methods of making them” (Burroughs Wellcome Co., priority 1980, dated 1982).

For orientation: half-life means the time in which the quantity being followed falls by half.

The data set in a line: Pharmacokinetics of bupropion in plasma after oral administration to four normal male subjects (RIA using 3H bupropion). The class given is in vivo. Particulars: human plasma, oral 200 mg bupropion-HCl (two 100 mg tablets). As for the experimental part:
Samples of six standard solutions of bupropion in blank plasma having concentrations of 0.39 to 50 ng/ml) are pipetted (0.1 ml each) in duplicate into 12×75 mm plastic tubes. Duplicate non-specific binding (no antibody) and maximum binding tubes (no unlabeled bupropion) receive 0.1 ml blank plasma. Spiked plasma controls at several concentrations of (e.g., 1.0, 10.0, and 100 ng/ml) and plasma samples for assay (diluted into the standard range with blank plasma if necessary) are assayed in duplicate. After being placed in an ice bath, all tubes receive (in order) 0.2 ml ^3 H bupropion (416 pg. containing approximately 10^4 cpm) and 0.7 ml anti-bupropion serum (raised to a ring-functionalized immunogen according to the present invention) (at pre-determined dilutions such that approximately 40% of the ^3 H bupropion added is bound), both in assay buffer (0.05 M phosphate-bufferedisotonic saline, containing 0.01 M EDTA and 0.1% gelatin, pH 7.0). […] The supernatants, containing antibody-bound ^3 H bupropion are carefully decanted into liquid scintillation cocktail for quantitation of ^3 H. After counts (minus average non-specific binding cpm) are expressed as percentages of average maximum binding cpm, bupropion concentrations in plasma samples and spiked controls are read from a standard curve (log concentration vs percent average maximum binding).
The procedure of Example X has been applied to a study of bupropion (supplied as Wellbatrin, produced by Burroughs Wellcome Co.) pharmacokinetics in plasma after oral administration of 200 mg bupropion-HCl (in two 100 mg tablets) to four normal male subjects. Venous blood samples were collected at various times following dosing, and concentrations in plasma samples determined as described. […]

Regarding `CC(NC(C)(C)C)C(=O)c1cccc(Cl)c1` (racemic) [bupropion, (±)-2-tert-butylamino-3'-chloropropiophenone], the Cmax (mean ± S.D., read-out: maximum plasma bupropion concentration) is 217 ± 37 ng/mL. In addition, the Tmax (mean ± S.D., read-out: time to reach maximum concentration) came to 1.5 ± 0.4 h. For the same molecule, the half-life (± S.D., read-out: mean elimination half-life (converted)) was 2.9 ± 0.4 h.
